In the supplement of paper PMC5908809:

Experiments:
[1] = system: IMC-1 (IL-2 20 ng/mL); test: drug sensitivity score (DSS) (DSS units); higher = more sensitive; extreme values may be limits of the assay; conditions: 72 h
[2] = system: normal primary NK cells, pool 3 (3 donors) (IL-2 2.5 ng/mL); test: as above; conditions: 72 h
[3] = system: YT (IL-2 2.5 ng/mL); test: as above; conditions: 72 h
[4] = system: NK-92 (IL-2 2.5 ng/mL); test: as above; conditions: 72 h
[5] = system: SNK-6 (IL-2 2.5 ng/mL); test: as above; conditions: 72 h
[6] = system: NK-YS (IL-2 2.5 ng/mL); test: as above; conditions: 72 h
[7] = system: NKL (IL-2 2.5 ng/mL); test: as above; conditions: 72 h
[8] = system: DERL-7 (IL-2 2.5 ng/mL); test: as above; conditions: 72 h
[9] = system: normal primary NK cells, pool 1 (3 donors) (IL-2 2.5 ng/mL); test: as above; conditions: 72 h
[10] = system: KHYG-1 (IL-2 2.5 ng/mL); test: as above; conditions: 72 h
[11] = system: normal primary NK cells, pool 1 (3 donors), resting (IL-2 0 ng/mL); test: as above; conditions: 72 h
[12] = system: KAI3 (IL-2 2.5 ng/mL); test: as above; conditions: 72 h
[13] = system: normal primary NK cells, pool 2 (3 donors) (IL-2 2.5 ng/mL); test: as above; conditions: 72 h
[14] = system: normal NK cells expanded with K562-aAPC; test: percent inhibition of viability; higher = more inhibition; conditions: 72 h, IL-2 2.5 ng/mL
Procedure: (§1)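 Drug sensitivity and resistance testing on K562-aAPC-expanded normal NK cells: 5 concentrations (10-fold steps over a 10,000-fold range), 72 h at 37 °C, viability by CellTiter-Glo normalised to DMSO and benzethonium chloride controls; DSS from the fitted curve.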

[15] = system: IMC-1 (IL-2 20 ng/mL); test: as above; conditions: 72 h
[16] = system: normal primary NK cells, pool 3 (3 donors) (IL-2 2.5 ng/mL); test: as above; conditions: 72 h
[17] = system: YT (IL-2 2.5 ng/mL); test: as above; conditions: 72 h
[18] = system: NK-92 (IL-2 2.5 ng/mL); test: as above; conditions: 72 h
[19] = system: SNK-6 (IL-2 2.5 ng/mL); test: as above; conditions: 72 h
[20] = system: NK-YS (IL-2 2.5 ng/mL); test: as above; conditions: 72 h
[21] = system: NKL (IL-2 2.5 ng/mL); test: as above; conditions: 72 h
[22] = system: DERL-7 (IL-2 2.5 ng/mL); test: as above; conditions: 72 h
[23] = system: normal primary NK cells, pool 1 (3 donors) (IL-2 2.5 ng/mL); test: as above; conditions: 72 h
[24] = system: KHYG-1 (IL-2 2.5 ng/mL); test: as above; conditions: 72 h
[25] = system: normal primary NK cells, pool 1 (3 donors), resting (IL-2 0 ng/mL); test: as above; conditions: 72 h
[26] = system: KAI3 (IL-2 2.5 ng/mL); test: as above; conditions: 72 h
[27] = system: normal primary NK cells, pool 2 (3 donors) (IL-2 2.5 ng/mL); test: as above; conditions: 72 h
[28] = system: normal NK cells expanded with K562-aAPC; test: drug sensitivity score (DSS) (DSS units); higher = more sensitive; extreme values may be limits of the assay; conditions: 72 h; IL-2 2.5 ng/mL
Procedure: as §1

O=c1sn(-c2cccc3ccccc23)c(=O)n1Cc1ccccc1 [Tideglusib] (max concentration tested 3000 nM)
Conditions	drug sensitivity score
[1]	0.12
[2]	0
[3]	0.04
[4]	0
[5]	0
[6]	0
[7]	0.46
[8]	0
[9]	0.12
[10]	0
[11]	4.87
[12]	1.59
[13]	0
[28]	0

percent inhibition of viability [%]
Conditions	0.3 nM	3 nM	30 nM	300 nM	3000 nM
[14]	-6.95	-7.17	-3.75	-3.95	10.8
[15]	-9.15	-4.57	-3.56	-1.74	14.2
[16]	-6.37	-9.25	6.54	6.09	5.7
[17]	0.91	-5.07	-4.89	-0.66	12.1
[18]	-5	-12.7	-13.7	-11.8	-1.4
[19]	-1.78	4.09	-8.27	7.39	0.93
[20]	-1.28	-6.26	-8.67	-1.58	10.1
[21]	-0.96	-13.4	-11.3	4.69	13.7
[22]	0.33	8.56	5.78	9.73	-4.19
[23]	-1.89	-5.16	15.6	9.54	6.41
[24]	0.24	-8.35	-8.09	-2.62	8.61
[25]	2.26	8.84	16.1	20.2	27.7
[26]	4.52	0.51	-8.06	2.48	28.9
[27]	-9.87	-9.74	-4.05	-1.59	6.8

Nc1ccccc1NC(=O)c1ccc(CNc2nccc(-c3cccnc3)n2)cc1 [Mocetinostat] (max concentration tested 10000 nM)
Conditions	drug sensitivity score
[1]	18.4
[2]	12.2
[3]	11.6
[4]	19.3
[5]	19.4
[6]	13.7
[7]	21.4
[8]	17
[9]	11.4
[10]	17.6
[11]	14.3
[12]	17.2
[13]	12.9
[28]	14.8

percent inhibition of viability [%]
Conditions	1 nM	10 nM	100 nM	1000 nM	10000 nM
[14]	-2.73	-8.59	-12.3	81.4	100
[15]	-6.53	-6.19	4.71	98.2	101
[16]	-0.12	-0.69	5.62	57.3	94.5
[17]	-3.42	-2.92	3.45	48.2	104
[18]	-18.8	-10.3	8.7	99.6	105
[19]	-6.1	-9.13	11.2	96.4	100
[20]	-9.56	-10.2	-10.2	71.5	102
[21]	-8.5	-7.5	22.2	98.2	106
[22]	-3.82	-7.01	-13.8	99.3	101
[23]	0.77	13.7	15.1	47	90.7
[24]	-6.09	-6.23	-4.57	100	105
[25]	6.94	10	2.89	76.2	88.4
[26]	-5.2	1.15	22.6	77.3	104
[27]	-2.61	-1	-6.41	66.8	94.1
